ChEMBL document CHEMBL1177720, “Selective hexapeptide agonists and antagonists for human complement C3a receptor” (J Med Chem, 2010)
Calls of active or inactive are those of the source. No cut-off for these calls is given here. Numbered stars: 1 amine (or outer) side, 2 acyl side, 3 side chain; on linkers, the order of the positions; unused ones are H or OH. Square brackets hold non-standard residues; d marks the D form. Peptide text beside a SMILES is read from it. Orn(Me) = CN(CCC[C@H](N[*:1])C(=O)[*:2])[*:3]; 1Nal = N[C@@H](Cc1cccc2ccccc12)C(=O)O; hPhe = N[C@@H](CCc1ccccc1)C(=O)O; Cha = N[C@@H](CC1CCCCC1)C(=O)O; Nle = CCCC[C@H](N)C(=O)O; Orn = NCCC[C@H](N)C(=O)O

Biological target: T1, C3a anaphylatoxin chemotactic receptor (Homo sapiens, UniProt Q16581)
T1 sequence (Q16581 whole entry): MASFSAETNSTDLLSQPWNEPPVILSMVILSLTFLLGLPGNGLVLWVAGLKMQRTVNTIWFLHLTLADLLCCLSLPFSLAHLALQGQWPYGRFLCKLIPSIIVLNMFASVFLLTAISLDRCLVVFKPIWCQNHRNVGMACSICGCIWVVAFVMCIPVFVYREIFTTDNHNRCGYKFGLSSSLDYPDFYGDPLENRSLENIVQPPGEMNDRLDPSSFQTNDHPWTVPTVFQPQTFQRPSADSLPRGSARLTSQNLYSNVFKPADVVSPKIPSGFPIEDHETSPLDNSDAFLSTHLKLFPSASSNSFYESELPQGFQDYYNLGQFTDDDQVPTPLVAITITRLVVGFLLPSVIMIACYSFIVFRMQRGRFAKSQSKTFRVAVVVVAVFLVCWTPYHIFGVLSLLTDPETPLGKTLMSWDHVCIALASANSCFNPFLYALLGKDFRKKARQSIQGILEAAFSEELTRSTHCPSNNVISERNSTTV
Assay: Agonist activity at human C3a receptor in human U937 cells assessed as induction of intracellular calcium release
Format: functional, cell-based, U-937
Details: read-out: EC50

| Structure (SMILES) | EC50 [µM] |
| --- | --- |
| CCCC[C@H](NC(=O)[C@@H](NC(=O)[C@H](CC(C)C)NC(=O)[C@@H](N)Cc1ccccc1)[C@@H](C)O)C(=O)N[C@@H](C)C(=O)N[C@@H](CCCN=C(N)N)C(=O)O (H-FLT[Nle]AR-OH) | 2.7 |
| CC(C)C[C@H](NC(=O)[C@H](C)NC(=O)[C@H](Cc1c[nH]c2ccccc12)NC(=O)[C@@H](N)Cc1ccccc1)C(=O)N[C@@H](C)C(=O)N[C@@H](CCCN=C(N)N)C(=O)O (H-FWALAR-OH) | 1.2 |
| CC(C)C[C@H](NC(=O)[C@H](CO)NC(=O)[C@H](Cc1c[nH]c2ccccc12)NC(=O)[C@@H](N)Cc1ccccc1)C(=O)N[C@@H](C)C(=O)N[C@@H](CCCNC(=N)N)C(=O)O (H-FWSLAR-OH) | 0.49 |
| CCCC[C@H](NC(=O)[C@@H]1CCCN1C(=O)[C@H](CCCCN)NC(=O)[C@@H](N)Cc1ccccc1)C(=O)N[C@@H](C)C(=O)N[C@@H](CCCN=C(N)N)C(=O)O (H-FKP[Nle]AR-OH) | 38 |
| CC(C)C[C@H](NC(=O)[C@@H](N)Cc1ccccc1)C(=O)N[C@H](C(=O)N[C@@H](CC(C)C)C(=O)N1CCC[C@H]1C(=O)N[C@@H](CCCN=C(N)N)C(=O)O)[C@@H](C)O (H-FLTLPR-OH) | 29 |
| CC(=O)N[C@@H](Cc1ccccc1)C(=O)N[C@@H](CC(C)C)C(=O)N[C@H](C(=O)N[C@@H](CC(C)C)C(=O)N[C@@H](C)C(=O)N[C@@H](CCCNC(=N)N)C(=O)O)[C@@H](C)O (Ac-FLTLAR-OH) | 0.52 |
| CC(C)C[C@H](NC(=O)[C@@H](NC(=O)[C@H](CC(C)C)NC(=O)[C@@H](N)Cc1ccccc1)[C@@H](C)O)C(=O)N[C@@H](C)C(=O)N[C@@H](CCCN=C(N)N)C(N)=O (H-FLTLAR-NH2) | 37 |
| CC(C)C[C@H](NC(=O)[C@@H](NC(=O)[C@H](CCCNC(=N)N)NC(=O)[C@@H](N)Cc1ccccc1)[C@@H](C)O)C(=O)N[C@@H](C)C(=O)N[C@@H](CCCNC(=N)N)C(=O)O (H-FRTLAR-OH) | 6.8 |
| CC(C)C[C@H](NC(=O)[C@H](C)NC(=O)[C@H](CC(C)C)NC(=O)[C@@H](N)Cc1ccccc1)C(=O)N[C@@H](C)C(=O)N[C@@H](CCCNC(=N)N)C(=O)O (H-FLALAR-OH) | 101 |
| CSCC[C@H](NC(=O)[C@@H]1CCCN1C(=O)[C@H](CCCCN)NC(=O)[C@H](Cc1cnc[nH]1)NC(=O)[C@H](CO)NC(=O)[C@@H](N)Cc1ccc(O)cc1)C(=O)N1CCC[C@H]1C(=O)N[C@@H](CC(C)C)C(=O)N[C@H](C)C(=O)N[C@@H](CCCN=C(N)N)C(=O)O | 5.7 |
| CC(C)C[C@H](NC(=O)[C@@H]1CCCN1C(=O)[C@H](CCC(N)=O)NC(=O)[C@@H](N)Cc1ccccc1)C(=O)N[C@@H](C)C(=O)N[C@@H](CCCNC(=N)N)C(=O)O (H-FQPLAR-OH) | 5.3 |
| CC(C)C[C@H](NC(=O)[C@@H]1CCCN1C(=O)[C@H](CC1CCCCC1)NC(=O)[C@@H](N)Cc1ccccc1)C(=O)N[C@@H](C)C(=O)N[C@@H](CCCNC(=N)N)C(=O)O (H-F[Cha]PLAR-OH) | 0.78 |
| CCCC[C@H](NC(=O)[C@@H](N)Cc1ccccc1)C(=O)N1CCC[C@H]1C(=O)N[C@@H](CC(C)C)C(=O)N[C@@H](C)C(=O)N[C@@H](CCCN=C(N)N)C(=O)O (H-F[Nle]PLAR-OH) | 1.8 |
| N=C(N)NCCC[C@@H](NC(=O)[C@H](CC1CCCCC1)NC(=O)[C@@H](CC1CCCCC1)NC(=O)[C@@H]1CCCN1C(=O)[C@H](CCCCN)NC(=O)[C@@H](N)Cc1ccccc1)C(N)=O | 2.2 |
| CC(C)C[C@H](NC(=O)[C@@H]1CCCN1C(=O)[C@H](CC(C)C)NC(=O)[C@@H](N)Cc1ccccc1)C(=O)N[C@@H](C)C(=O)N[C@@H](CCCNC(=N)N)C(=O)O (H-FLPLAR-OH) | 0.42 |
| CC(C)C[C@H](NC(=O)[C@@H]1CCCN1C(=O)[C@H](CCCCN)NC(=O)[C@@H](N)Cc1ccccc1)C(=O)N[C@@H](Cc1c[nH]c2ccccc12)C(=O)N[C@@H](CCCN=C(N)N)C(=O)O (H-FKPLWR-OH) | 25 |
| CC(C)C[C@H](NC(=O)[C@@H]1CCCN1C(=O)[C@H](Cc1cccc2ccccc12)NC(=O)[C@@H](N)Cc1ccccc1)C(=O)N[C@@H](C)C(=O)N[C@@H](CCCNC(=N)N)C(=O)O (H-F[1Nal]PLAR-OH) | 0.72 |
| CC(C)C[C@H](NC(=O)CNC(=O)[C@H](Cc1c[nH]c2ccccc12)NC(=O)[C@@H](N)Cc1ccccc1)C(=O)N[C@@H](C)C(=O)N[C@@H](CCCNC(=N)N)C(=O)O (H-FWGLAR-OH) | 0.47 |
| CC(C)C[C@H](NC(=O)[C@@H]1CCCN1C(=O)[C@H](CCc1ccccc1)NC(=O)[C@@H](N)Cc1ccccc1)C(=O)N[C@@H](C)C(=O)N[C@@H](CCCN=C(N)N)C(=O)O (H-F[hPhe]PLAR-OH) | 1.1 |
| CC(C)C[C@H](NC(=O)[C@@H]1CCCN1C(=O)[C@H](Cc1ccccc1)NC(=O)[C@@H](N)Cc1ccccc1)C(=O)N[C@@H](C)C(=O)N[C@@H](CCCNC(=N)N)C(=O)O (H-FFPLAR-OH) | 5.4 |
| CC(C)C[C@H](NC(=O)[C@@H](NC(=O)[C@H](CC(C)C)NC(=O)[C@@H](N)Cc1ccc(O)cc1)[C@@H](C)O)C(=O)N[C@@H](C)C(=O)N[C@@H](CCCN=C(N)N)C(=O)O (H-YLTLAR-OH) | 2.5 |
| CC(C)C[C@H](NC(=O)[C@@H](NC(=O)[C@H](CCCCN)NC(=O)[C@@H](N)Cc1ccccc1)[C@@H](C)O)C(=O)N[C@@H](C)C(=O)N[C@@H](CCCNC(=N)N)C(=O)O (H-FKTLAR-OH) | 3.8 |
| CC(C)C[C@H](NC(=O)[C@@H]1CCCN1C(=O)[C@H](CCCCN)NC(=O)[C@@H](N)Cc1ccccc1)C(=O)N[C@@H](C)C(=O)N[C@@H](CCCNC(=N)N)C(=O)O (H-FKPLAR-OH) | 33 |
| CC(C)C[C@H](NC(=O)[C@@H](NC(=O)[C@H](CC(C)C)NC(=O)[C@@H](N)Cc1ccccc1)C(C)C)C(=O)N[C@@H](C)C(=O)N[C@H](CCCN=C(N)N)C(=O)O | 57 |
| CCCC[C@H](NC(=O)[C@@H](N)Cc1ccccc1)C(=O)N[C@H](C(=O)N[C@@H](CC(C)C)C(=O)N[C@@H](C)C(=O)N[C@@H](CCCN=C(N)N)C(=O)O)[C@@H](C)O (H-F[Nle]TLAR-OH) | 0.31 |
| CC(C)C[C@H](NC(=O)[C@@H](NC(=O)[C@H](CC(C)C)NC(=O)[C@@H](N)CCc1ccccc1)[C@@H](C)O)C(=O)N[C@@H](C)C(=O)N[C@@H](CCCNC(=N)N)C(=O)O (H-[hPhe]LTLAR-OH) | 11 |
| CC(C)C[C@H](NC(=O)[C@H](CO)NC(=O)[C@H](CC(C)C)NC(=O)[C@@H](N)Cc1ccccc1)C(=O)N[C@@H](C)C(=O)N[C@@H](CCCNC(=N)N)C(=O)O (H-FLSLAR-OH) | 0.36 |

Same assay, conditions: read-out: pEC50 (converted)

| Structure (SMILES) | EC50 [µM] |
| --- | --- |
| CC(C)C[C@H](NC(=O)[C@H](C)NC(=O)[C@H](CC(C)C)NC(=O)[C@@H](N)Cc1ccccc1)C(=O)N[C@@H](C)C(=O)N[C@@H](CCCNC(=N)N)C(=O)O (H-FLALAR-OH) | 1.1 |

Biological target: T2, C3a anaphylatoxin chemotactic receptor (Homo sapiens) (UniProt Q16581)
T2 sequence (whole entry): T1 sequence (Q16581 whole entry)
Assay: Agonist activity at human C3a receptor in human U937 cells assessed as induction of intracellular calcium release at 1 mM
Format: functional, cell-based
Details: U-937

| Structure (SMILES) | Activity |
| --- | --- |
| CC(C)C[C@H](NC(=O)[C@@H]1CCCN1C(=O)[C@H](CCCCN)NC(=O)[C@@H](N)Cc1c[nH]c2ccccc12)C(=O)N[C@@H](C)C(=O)N[C@@H](CCCNC(=N)N)C(=O)O (H-WKPLAR-OH) | inactive |
| CNCCC[C@H](NC(=O)[C@@H](N)Cc1ccccc1)C(=O)N[C@H](C(=O)N[C@@H](CC(C)C)C(=O)N[C@@H](C)C(=O)N[C@@H](CCCNC(=N)N)C(=O)O)[C@@H](C)O (H-F[Orn(Me)]TLAR-OH) | inactive |
| C[C@H](NC(=O)[C@H](CC1CCCCC1)NC(=O)[C@@H]1CCCN1C(=O)[C@H](CCCCN)NC(=O)[C@@H](N)Cc1ccccc1)C(=O)N[C@@H](CCCNC(=N)N)C(=O)O (H-FKP[Cha]AR-OH) | inactive |
| CC(C)C[C@H](NC(=O)[C@@H]1CCCN1C(=O)[C@H](CCCCN)NC(=O)[C@@H](N)Cc1ccccc1)C(=O)N[C@@H](CC1CCCCC1)C(=O)N[C@@H](CCCNC(=N)N)C(=O)O (H-FKPL[Cha]R-OH) | inactive |
| CC(C)C[C@H](NC(=O)[C@@H]1CCCN1C(=O)[C@H](CCCCN)NC(=O)[C@@H](N)CC1CCCCC1)C(=O)N[C@@H](C)C(=O)N[C@@H](CCCNC(=N)N)C(=O)O (H-[Cha]KPLAR-OH) | inactive |
| CC(C)C[C@H](NC(=O)[C@H](CC(C)C)NC(=O)[C@@H](NC(=O)[C@H](CC(C)C)NC(=O)[C@@H](N)Cc1ccccc1)[C@@H](C)O)C(=O)N[C@@H](CCCNC(=N)N)C(=O)O (H-FLTLLR-OH) | inactive |
| CC[C@H](C)[C@H](NC(=O)[C@@H](NC(=O)[C@H](CC(C)C)NC(=O)[C@@H](N)Cc1ccccc1)[C@@H](C)O)C(=O)N[C@@H](C)C(=O)N[C@@H](CCCNC(=N)N)C(=O)O (H-FLTIAR-OH) | inactive |
| CC(C)C[C@H](NC(=O)[C@@H]1CCCN1C(=O)[C@H](CCCNC(=N)N)NC(=O)[C@@H](N)Cc1ccccc1)C(=O)N[C@@H](C)C(=O)N[C@@H](CCCNC(=N)N)C(=O)O (H-FRPLAR-OH) | inactive |
| CC(C)C[C@H](NC(=O)[C@@H](N)Cc1ccccc1)C(=O)N[C@H](C(=O)N[C@H](CC1CCCCC1)C(=O)N[C@@H](C)C(=O)N[C@@H](CCCNC(=N)N)C(=O)O)[C@@H](C)O | inactive |
| CC(C)C[C@H](NC(=O)[C@@H](NC(=O)[C@H](CC(C)C)NC(=O)[C@@H](N)CCCNC(=N)N)[C@@H](C)O)C(=O)N[C@@H](C)C(=O)N[C@@H](CCCNC(=N)N)C(=O)O (H-RLTLAR-OH) | inactive |
| CC(C)C[C@H](NC(=O)[C@@H]1CCCN1C(=O)[C@H](CCCN)NC(=O)[C@@H](N)Cc1ccccc1)C(=O)N[C@@H](C)C(=O)N[C@@H](CCCNC(=N)N)C(=O)O (H-F[Orn]PLAR-OH) | inactive |
| C[C@H](NC(=O)[C@H](Cc1ccccc1)NC(=O)[C@@H]1CCCN1C(=O)[C@H](CCCCN)NC(=O)[C@@H](N)Cc1ccccc1)C(=O)N[C@@H](CCCNC(=N)N)C(=O)O (H-FKPFAR-OH) | inactive |
